According to US20260285850A1, “SUBSTITUTED OXAZOLIDINONES AND IMIDAZOLINONES AS HERBICIDES” (FMC CORPORATION, priority 2023, published 2026):

How the values were obtained:
Type in all cases: in vivo
[1] = test system: palmer (palmer amaranth, palmer pigweed, Amaranthus palmeri); assay: Test A preemergence soil spray, visual injury rating 0-100; details: 10 days
Procedure, shortened: (§1)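 Loam-sand pots got test material in surfactant-containing solvent, either as a directed soil spray before emergence or on plants at the one- to two-leaf stage. Visual injury (0-100) was read after ten greenhouse days.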

[2] = test system: blackgrass (Alopecurus myosuroides); assay: as above; details: 10 days
Procedure, shortened: as §1

[3] = test system: oat, wild (wild oat, Avena fatua); assay: as above; details: 10 days
Procedure, shortened: as §1

[4] = test system: corn (Zea mays); assay: as above; details: 10 days
Procedure, shortened: as §1

[5] = test system: ryegrass, Italian (italian ryegrass, Lolium multiflorum); assay: as above; details: 10 days
Procedure, shortened: as §1

[6] = test system: green foxtail (Setaria viridis); assay: as above; details: 10 days
Procedure, shortened: as §1

[7] = test system: ragweed (common ragweed, Ambrosia artemisiifolia); assay: as above; details: 10 days
Procedure, shortened: as §1

[8] = test system: wheat (Triticum aestivum); assay: as above; details: 10 days
Procedure, shortened: as §1

[9] = test system: soybean (Glycine max); assay: as above; details: 10 days
Procedure, shortened: as §1

[10] = test system: kochia (Bassia scoparia); assay: as above; details: 10 days
Procedure, shortened: as §1

[11] = test system: barnyardgrass (Echinochloa crus-galli); assay: as above; details: 10 days
Procedure, shortened: as §1

[12] = test system: barnyardgrass (Echinochloa crusgalli); assay: Test B flooded paddy test, visual plant response rating 0-100; details: 250 g ai/ha, Flood, applied to paddy water, evaluated after 13 days
Procedure, shortened: (§2)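 Greenhouse, 13 d. Seedlings at 2-leaf stage, pots flooded to 3 cm, compound delivered into floodwater, water level held constant. Evaluated visually relative to controls.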

[13] = test system: rice (Oryza sativa); assay: as above; details: 250 g ai/ha, Flood, applied to paddy water, evaluated after 13 days
Procedure, shortened: as §2

[14] = test system: sedge, umbrella (small-flower umbrella sedge, Cyperus difformis); assay: as above; details: 250 g ai/ha, Flood, applied to paddy water, evaluated after 13 days
Procedure, shortened: as §2

[15] = test system: ducksalad (Heteranthera limosa); assay: as above; details: 250 g ai/ha, Flood, applied to paddy water, evaluated after 13 days
Procedure, shortened: as §2

[16] = test system: palmer (palmer amaranth, palmer pigweed, Amaranthus palmeri); assay: Test A postemergence application, visual injury rating 0-100
Procedure, shortened: as §1

[17] = test system: galium (catchweed bedstraw, Galium aparine); assay: as above
Procedure, shortened: as §1

[18] = test system: blackgrass (Alopecurus myosuroides); assay: as above
Procedure, shortened: as §1

[19] = test system: oat, wild (wild oat, Avena fatua); assay: as above
Procedure, shortened: as §1

[20] = test system: corn (Zea mays); assay: as above
Procedure, shortened: as §1

[21] = test system: ryegrass, Italian (italian ryegrass, Lolium multiflorum); assay: as above
Procedure, shortened: as §1

[22] = test system: green foxtail (Setaria viridis); assay: as above
Procedure, shortened: as §1

[23] = test system: horseweed (Erigeron canadensis); assay: as above
Procedure, shortened: as §1

[24] = test system: ragweed (common ragweed, Ambrosia artemisiifolia); assay: as above
Procedure, shortened: as §1

[25] = test system: wheat (Triticum aestivum); assay: as above
Procedure, shortened: as §1

[26] = test system: soybean (Glycine max); assay: as above
Procedure, shortened: as §1

[27] = test system: kochia (Bassia scoparia); assay: as above
Procedure, shortened: as §1

[28] = test system: barnyardgrass (Echinochloa crus-galli); assay: as above
Procedure, shortened: as §1

[29] = 62 g ai/ha, 0 = no effect, 100 = complete control
[30] = 62 g ai/ha, postemergence, 10 days, 0 = no effect, 100 = complete control
[31] = Postemergence, 16 g ai/ha, greenhouse 10 days, 0 no effect, 100 complete control

COC(=O)C1CC(NC(=O)C2(C)CN(c3cc(F)cc(F)c3)C(=O)O2)C1 (stereo not shown) [Compound 117]
10: Pigweed, Palmer plant response rating (0-100) [1, 29] | Barnyardgrass plant response rating (0-100) [11, 29] | Pigweed, Palmer plant response rating (0-100) [16, 30] | Oat, Wild plant response rating (0 to 100 scale) [19, 31]
70: Ryegrass, Italian plant response rating (0-100) [5, 29] | Blackgrass plant response rating (0 to 100 scale) [18, 31] | Barnyardgrass plant response rating (0-100) [28, 30]
90: Oat, Wild plant response rating (0-100) [3, 29] | Blackgrass plant response rating (0-100) [18, 30] | Foxtail, Green plant response rating (0-100) [22, 30] | Wheat plant response rating (0-100) [25, 30]
100: Corn plant response rating (0-100) [20, 30]
30: Blackgrass plant response rating ([2]; 16 g ai/ha, 0 to 100 scale) | Foxtail, Green plant response rating (0 to 100 scale) [22, 31]
0: Pigweed, Palmer plant response rating ([1]; 16 g ai/ha, 0 to 100 scale) | Corn plant response rating ([4]; 16 g ai/ha, 0 to 100 scale) | Corn plant response rating (0-100) [4, 29] | Ryegrass, Italian plant response rating ([5]; 16 g ai/ha, 0 to 100 scale) | Foxtail, Green plant response rating ([6]; 16 g ai/ha, 0 to 100 scale) | Ragweed plant response rating ([7]; 16 g ai/ha, 0 to 100 scale) | Ragweed plant response rating (0-100) [7, 29] | Wheat plant response rating ([8]; 16 g ai/ha, 0 to 100 scale) | Soybean plant response rating ([9]; 16 g ai/ha, 0 to 100 scale) | Soybean plant response rating (0-100) [9, 29] | Kochia plant response rating ([10]; 16 g ai/ha, 0 to 100 scale) | Kochia plant response rating (0-100) [10, 29] | Barnyardgrass plant response rating ([11]; 16 g ai/ha, 0 to 100 scale) | Plant response rating, Barnyardgrass (0 to 100 scale, 0 is no effect and 100 is complete control) [12] | Plant response rating, Rice (0 to 100 scale, 0 is no effect and 100 is complete control) [13] | Plant response rating, Sedge, Umbrella (0 to 100 scale, 0 is no effect and 100 is complete control) [14] | Plant response rating, Ducksalad (0 to 100 scale, 0 is no effect and 100 is complete control) [15] | Pigweed, Palmer plant response rating (0 to 100 scale) [16, 31] | Corn plant response rating (0 to 100 scale) [20, 31] | Horseweed plant response rating (0-100) [23, 30] | Horseweed plant response rating (0 to 100 scale) [23, 31] | Ragweed plant response rating (0 to 100 scale) [24, 31] | Kochia plant response rating (0-100) [27, 30] | Kochia plant response rating (0 to 100 scale) [27, 31] | Barnyardgrass plant response rating (0 to 100 scale) [28, 31]
20: Wheat plant response rating (0-100) [8, 29]
50: Galium plant response rating (0 to 100 scale) [17, 31] | Wheat plant response rating (0 to 100 scale) [25, 31]
60: Blackgrass plant response rating (0-100) [2, 29] | Galium plant response rating (0-100) [17, 30] | Ryegrass, Italian plant response rating (0 to 100 scale) [21, 31] | Soybean plant response rating (0-100) [26, 30]
80: Foxtail, Green plant response rating (0-100) [6, 29] | Oat, Wild plant response rating (0-100) [19, 30] | Ryegrass, Italian plant response rating (0-100) [21, 30]
40: Oat, Wild plant response rating ([3]; 16 g ai/ha, 0 to 100 scale) | Ragweed plant response rating (0-100) [24, 30] | Soybean plant response rating (0 to 100 scale) [26, 31]
